Experimental data from patent US8598130B2, “Insecticidal combinations” (priority 2008, dated 2013).

Test system: mites
Test: Field trial of mite control on field beans variety Paloma, foliar spray
Assay type: in vivo
Conditions: for Observed, % control of mites 6DAA3: 6 days after application 3, rate g/ha: abamectin 6.7, cyflumetofen 150, combination 6.7 & 150, percentage compared to non-treated control; for Observed, % control of mites 14DAA3: fourteen days after application 3, rate g/ha: abamectin 6.7, cyflumetofen 150, combination 6.7 & 150, percentage compared to non-treated control; for Observed, % control of mites 6DAA1: six days after application 1, rate g/ha: abamectin 6.7, cyflumetofen 150, combination 6.7 & 150, percentage compared to non-treated control; for Observed, % control of mites 6DAA2: six days after application 2, rate g/ha: abamectin 6.7, cyflumetofen 150, combination 6.7 & 150, percentage compared to non-treated control
Description: The action to be expected E for a given active ingredient combination obeys the so-called COLBY formula and can be calculated as follows (COLBY, S. R. “Calculating synergistic and antagonistic responses of herbicide combination”. Weeds, Vol. 15, pages 20-22; 1967): • ppm=milligrams of active ingredient (=a.i.) per liter of spray mixture • X=% action by active ingredient A) using p ppm of active ingredient • Y=% action by active ingredient B) using q ppm of active ingredient.
According to COLBY, the expected (additive) action of active ingredients A)+B) using p+q ppm of active ingredient is
If the action actually observed (O is greater than the expected action (E), then the action of the combination is super-additive, i.e. there is a synergistic effect.
Trials are conducted on field beans variety Paloma to determine the effects of the present combination.
The trials are carried out on a plot is 1 m^2, with three replicates for each trial and spray volume ranges from 1500-1600 l/ha.
The first application of the pesticide formulation (whether solo or combination) is at pest threshold as foliar spray (at 35 days after planting). Thereafter the second and third foliar applications are at 42 and 49 days after planting.
The assessment of the mite control is carried out on the basis of number of mites on five leaves for each plot at the times indicated in the table (i.e., six days after application 1 (6DAA1), six days after application 2 (6DAA2), 6 days after application 3 (6DAA3), and fourteen days after application 3 (14DAA3)). The values are given as a percentage compared to a non-treated control.
The Table below also provides the expected % control for the combination based on the Colby formula.

Row | Compound | Observed, % control of mites 6DAA3 [%] | Observed, % control of mites 14DAA3 [%] | Observed, % control of mites 6DAA1 [%] | Observed, % control of mites 6DAA2 [%]
1 | COCCOC(=O)C(C#N)(C(=O)c1ccccc1C(F)(F)F)c1ccc(C(C)(C)C)cc1 (centres unmarked) [cyflumetofen] | 26 | 32 | 79 | 64
2 | abamectin | 59 | 66 | 92 | 32
